Results from patent US10052306B2 (LUC THERAPEUTICS, INC., priority 2013, dated 2018).

Key:
NR1/NR2B [1] = target: NR1/NR2B (Homo sapiens (Human), UniProt Q13224); test: Cell assay: FDSS Ca2+ influx inhibition in HEK293 cells expressing NR1/NR2B; conditions: read-out: NR2B NAM IC50; HEK293 cells expressing NR1/NR2B, Ca2+ influx;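 also: Fluo-8 Ca2+ signal read on Hamamatsu FDSS 6000 after glutamate, glycine and Ca2+ challenge following 10 min compound preincubation, end/baseline fluorescence ratio compared with MK801 control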
Chain of NR1/NR2B (Homo sapiens (Human), UniProt Q13224) (Q13224 27-1484, other chains not shown): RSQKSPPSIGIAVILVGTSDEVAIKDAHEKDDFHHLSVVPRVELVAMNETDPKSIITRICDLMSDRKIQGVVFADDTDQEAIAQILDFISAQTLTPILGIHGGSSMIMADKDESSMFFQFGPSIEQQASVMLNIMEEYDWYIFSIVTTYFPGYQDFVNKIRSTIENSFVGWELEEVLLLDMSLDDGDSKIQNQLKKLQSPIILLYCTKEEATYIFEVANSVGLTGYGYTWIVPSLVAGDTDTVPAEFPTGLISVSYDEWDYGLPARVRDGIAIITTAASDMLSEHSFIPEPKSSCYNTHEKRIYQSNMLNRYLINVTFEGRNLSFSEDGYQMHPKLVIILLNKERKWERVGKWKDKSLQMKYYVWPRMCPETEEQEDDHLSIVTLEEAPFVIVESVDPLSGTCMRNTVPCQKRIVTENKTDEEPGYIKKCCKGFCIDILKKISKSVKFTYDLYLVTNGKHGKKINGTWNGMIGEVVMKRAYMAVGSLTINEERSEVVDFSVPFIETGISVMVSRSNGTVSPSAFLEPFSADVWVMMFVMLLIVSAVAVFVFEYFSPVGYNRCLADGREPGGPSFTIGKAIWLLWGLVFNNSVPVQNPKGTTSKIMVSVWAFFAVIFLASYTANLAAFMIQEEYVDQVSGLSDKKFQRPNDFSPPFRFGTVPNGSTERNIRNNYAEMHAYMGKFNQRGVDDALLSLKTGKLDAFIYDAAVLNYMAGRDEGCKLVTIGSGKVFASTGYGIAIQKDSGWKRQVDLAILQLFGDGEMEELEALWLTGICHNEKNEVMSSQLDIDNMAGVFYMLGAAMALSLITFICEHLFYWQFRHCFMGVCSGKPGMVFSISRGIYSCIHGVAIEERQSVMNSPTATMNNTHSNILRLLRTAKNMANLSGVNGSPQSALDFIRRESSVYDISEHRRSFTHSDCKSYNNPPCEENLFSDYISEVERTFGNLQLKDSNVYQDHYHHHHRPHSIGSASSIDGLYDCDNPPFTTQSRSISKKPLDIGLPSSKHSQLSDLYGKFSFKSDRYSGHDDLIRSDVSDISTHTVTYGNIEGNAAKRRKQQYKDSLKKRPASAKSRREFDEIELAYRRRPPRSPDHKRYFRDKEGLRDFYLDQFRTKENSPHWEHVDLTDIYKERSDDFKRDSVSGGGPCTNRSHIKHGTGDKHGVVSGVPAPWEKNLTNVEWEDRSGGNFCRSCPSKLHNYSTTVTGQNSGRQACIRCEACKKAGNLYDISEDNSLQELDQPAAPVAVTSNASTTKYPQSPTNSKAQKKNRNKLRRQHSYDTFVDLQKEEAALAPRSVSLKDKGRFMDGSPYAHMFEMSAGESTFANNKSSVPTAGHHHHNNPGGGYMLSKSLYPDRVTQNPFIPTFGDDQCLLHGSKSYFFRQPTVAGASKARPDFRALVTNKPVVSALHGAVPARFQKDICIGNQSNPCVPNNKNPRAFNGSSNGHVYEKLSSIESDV
Procedure: (§1) Cell Culture and plating: HEK293 cells expressing NR1/NR2B (Chantest, Cleveland, Ohio) were grown to 70-80% confluency as an adherent monolayer in standard tissue culture flasks at 37° C., 5% CO2 per supplier's instructions. NR2B expression was induced by incubation with 0.3-0.4 μg/ml tetracycline in the presence of 4 mM ARL-15896 for 18-24 hours under the same growth conditions, then transferred to 30° C. for another 3-5 hours.
(§2) After induction, cell culture medium was removed and cells were rinsed once with Ca^2+ and Mg^2+-free Dulbecco's phosphate buffered saline. Cells were then removed from the flask using TrypLE™ Express (Life Technologies) according to the manufacturer's instructions and collected to 50 ml centrifuge tubes. Following two washes in Ca^2+/Mg^2+-free HBSS with 20 mM HEPES (HHnoCa), cells were counted and viability assessed using trypan blue. To load cells with Ca^2+-sensitive dye, they were resuspended in fluo-8 plus Component B (AAT Bioquest Products) diluted in HHnoCa and incubated 15 minutes at 37° C., followed by 30 minutes at room temp (in dark). Cells were then washed and resuspended in HHnoCa to remove extracellular dye and plated in 384-well plates (Falcon, uncoated) at 20,000-30,000 cells/well in a final volume of 25 μl/well.
(§3) FDSS Assay: To each well of the plate, 10 μL test compound, control (MK801) or HHnoCa buffer was added to a final concentration of 10 μM with a final concentration of DMSO of 0.1%. Following 10 minutes pre-incubation in the dark, plates are loaded onto the Hamamatsu FDSS 6000. After collecting baseline fluorescence images, 3 μM glutamate, 3 glycine, and 1 mM Ca^2+ in HHnoCa buffer is added to each well, and Ca^2+ is recorded for 3 minutes. Data were processed by computing ratio of fluorescence at the end of data collection to baseline fluorescence to assess degree of Ca′ influx inhibition relative to that observed in MK801.

NR1/NR2B [2] = target: NR1/NR2B (Homo sapiens (Human), UniProt Q05586+Q13224); test: as above; conditions: Binned Activity, HEK293 cells expressing NR1/NR2B, Ca2+ influx; binned NR2B NAM IC50
Chain of NR1/NR2B (Homo sapiens (Human), UniProt Q05586+Q13224) (Q13224 27-1484, other chains not shown): as above
Procedure: as §1, §2, §3

Structure (SMILES) | IC50 (NR1/NR2B [1]) [µM] | IC50 (NR1/NR2B [2]) [µM]
COc1ncc(-c2ccc(C(=O)CN3C[C@@H]4C[C@@](O)(Cc5ccccc5)C[C@@H]4C3)cc2)cn1 [Example 279, 2-((3aR,5r,6aS)-5-benzyl-5-hydroxyhexahydrocyclo-penta[c]pyrrol-2(1H)-yl)-1-(4-(2-methoxypyrimidin-5-yl)phenyl)ethanone] | 10 | > 10
Oc1ccc([C@@H](O)CN2C[C@@H]3C[C@@](O)(Cc4ccccc4)C[C@@H]3C2)cc1 [Example 136, (3aR,5R,6aS)-5-benzyl-2-((R)-2-hydroxy-2-(4-hydroxyphenyl)ethyl)octa-hydrocyclopenta[c]pyrrol-5-ol] | 0.0237 | < 0.1
O=C(Nc1ccc(F)cc1F)N1C[C@@H]2C[C@@](O)(c3ccccc3)C[C@@H]2C1 [Example 19, N-(2,4-difluorophenyl)-5-hydroxy-5-phenyl-octahydrocyclopenta[c] pyrrole-2-carboxamide] | 10 | > 10
CC(C)(C)C(=O)Nc1ccc(C(=O)CN2C[C@@H]3C[C@@](O)(Cc4ccccc4)C[C@@H]3C2)cn1 [Example 285, N-(5-(2-(5-benzyl-5-hydroxyhexahydrocyclo-penta[c]pyrrol-2(1H)-yl)acetyl)pyridin-2-yl)pivalamide] | 10 | > 10
COc1cccc([C@]2(O)C[C@H]3CN(C(=O)Nc4ccccc4)C[C@H]3C2)c1 [Example 29, 5-hydroxy-5-(3-methoxyphenyl)-N-phenyl-octahydrocyclopenta[c] pyrrole-2-carboxamide] | 10 | > 10
Oc1ccc([C@H](O)CN2C[C@@H]3C[C@@](O)(Cc4ccccc4)C[C@@H]3C2)nc1 [Example 165, (3aR,5R,6aS)-5-benzyl-2-((R)-2-hydroxy-2-(5-hydroxypyridin-2-yl)ethyl)octahydrocyclo-penta[c]pyrrol-5-ol] | 0.0337 | < 0.1
COc1ccc(NC(=O)N2C[C@@H]3C[C@@](O)(c4ccc(C#N)cc4)C[C@@H]3C2)cc1 [Example 2, 5-(4-cyanophenyl)-5-hydroxy-N-(4-methoxyphenyl)-octahydrocyclopenta[c] pyrrole-2-carboxamide] | 10 | > 10
COc1cccc(-c2cccc(C(=O)CN3C[C@@H]4C[C@@](O)(Cc5ccccc5)C[C@@H]4C3)c2)c1 [Example 273, 2-((3aR,5r,6aS)-5-benzyl-5-hydroxyhexahydrocyclo-penta[c]pyrrol-2(1H)-yl)-1-(3′-methoxy-[1,1′-biphenyl]-3-yl)ethanone] | 10 | > 10
O=C(CN1C[C@@H]2C[C@@](O)(CC3CC3)C[C@@H]2C1)c1ccc(O)cc1 [Example 210, 2-((3aR,5r,6aS)-5-(cyclopropylmethyl)-5-hydroxyhexahydrocyclo-penta[c]pyrrol-2(1H)-yl)-1-(4-hydroxyphenyl)ethanone] | 10 | > 10
O=C(CN1C[C@@H]2C[C@@](O)(Cc3ccccc3)C[C@@H]2C1)c1ccc(O)c(F)n1 [Example 190, 2-((3aR,5r,6aS)-5-benzyl-5-hydroxyhexahydrocyclo-penta[c]pyrrol-2(1H)-yl)-1-(6-fluoro-5-hydroxypyridin-2-yl)ethanone] | 10 | > 10
Cc1ccccc1C[C@]1(O)C[C@H]2CN(CC(=O)c3ccc(O)cc3)C[C@H]2C1 [Example 183, 2-((3aR,5r,6aS)-5-hydroxy-5-(2-methylbenzyl)hexahydro-cyclopenta[c]pyrrol-2(1H)-yl)-1-(4-hydroxyphenyl)ethanone] | 0.145 | 0.1 to 1
O=C(CN1C[C@H]2C[C@H](Cc3ccccc3)C[C@H]2C1)c1ccc(O)cc1 [Example 305, 2-[(3aR,5R,6aS)-5-benzyl-octahydrocyclopenta[c]pyrrol-2-yl]-1-(4-hydroxyphenyl)ethan-1-one] | 0.0535 | < 0.1
O=C(Nc1ccc(Cl)c(C(F)(F)F)c1)N1C[C@H]2C[C@@H](c3ccccc3)C[C@H]2C1 [Example 108, N-[4-chloro-3-(trifluoromethyl)phenyl]-5-phenyl-octahydrocyclopenta[c] pyrrole-2-carboxamide] | 10 | > 10
COc1cccc(NC(=O)N2C[C@H]3C[C@@H](c4ccccc4)C[C@H]3C2)c1 [Example 104, N-(3-methoxyphenyl)-5-phenyl-octahydrocyclopenta[c] pyrrole-2-carboxamide] | 10 | > 10
COC(=O)c1ccc(NC(=O)N2C[C@H]3C[C@@H](c4ccccc4)C[C@H]3C2)cc1 [Example 103, methyl 4-[({5-phenyl-octahydrocyclopenta[c]pyrrol-2-yl}carbonyl)amino]benzo-ate] | 10 | > 10
Oc1ccc([C@H](O)CN2C[C@@H]3C[C@@](O)(Cc4ccccc4)C[C@@H]3C2)cc1F [Example 156, (3aR,5S,6aS)-5-benzyl-2-((S)-2-(3-fluoro-4-hydroxyphenyl)-2-hydroxyethyl)octahydro-cyclopenta[c]pyrrol-5-ol] | 0.0305 | < 0.1
CO[C@@]1(Cc2ccccc2)C[C@H]2CN(CC(=O)c3ccc(O)c(F)n3)C[C@H]2C1 [Example 197, 2-((3aR,5r,6aS)-5-benzyl-5-methoxyhexahydrocyclo-penta[c]pyrrol-2(1H)-yl)-1-(6-fluoro-5-hydroxypyridin-2-yl)ethanone] | 10 | > 10
O=C(Nc1cccnc1)N1C[C@@H]2C[C@@](O)(c3ccccc3)C[C@@H]2C1 [Example 44] | 10 | > 10
O=C(CN1C[C@@H]2CN(Cc3ccccc3)C[C@@H]2C1)c1ccc(O)c(F)c1 [Example 340, 2-(5-benzylhexahydropyrrolo [3,4-c]pyrrol-2(1H)-yl)-1-(3-fluoro-4-hydroxyphenyl)ethanone] | 10 | > 10
COC(=O)c1ccc(NC(=O)N2C[C@@H]3C[C@@](O)(c4ccccc4)C[C@@H]3C2)cc1 [Example 28, methyl 4-[({5-hydroxy-5-phenyl-octahydrocyclopenta[c]pyrrol-2-yl}carbonyl)amino] benzoate] | 10 | > 10
O=C(CN1C[C@@H]2C[C@@](O)(CC3CCCCC3)C[C@@H]2C1)c1ccc(O)cn1 [Example 206, 2-[(3aR,5R,6aS)-5-(cyclohexylmethyl)-5-hydroxy-octahydrocyclopenta[c]pyrrol-2-yl]-1-(5-hydroxypyridin-2-yl)ethan-1-one] | 10 | > 10
O=C(CN1C[C@@H]2C[C@@](O)(Cc3ccc(F)cc3F)C[C@@H]2C1)c1ccc(O)cc1 [Example 238, 2-(5-(2,4-difluorobenzyl)-5-hydroxyhexahydrocyclo-penta[c]pyrrol-2(1H)-yl)-1-(4-hydroxyphenyl)ethanone] | 0.0516 | < 0.1
COc1ccc(C)cc1NC(=O)N1C[C@@H]2C[C@@](O)(c3ccccc3C)C[C@@H]2C1 [Example 23, 5-hydroxy-N-(2-methoxy-5-methylphenyl)-5-(2-methylphenyl)-octahydrocyclopenta[c] pyrrole-2-carboxamide] | 10 | > 10
